In the OligoGym collection:
Values joined by “and” are separate entries in the source; they are usually repeats but may differ in a detail not shown here. Equal entries are not always repeated. HELM strings list units from the 5' end as sugar, base in round brackets, then linkage (d deoxyribose, r ribose, m 2'-O-methyl, p phosphodiester). Strings are as the collection lists them, not checked against the first reports. ss, as = sense and antisense strand; [fl2r] = 2'-fluoro

Conditions: siRNA
Also: test system not given here.

Substance	target mRNA knockdown
RNA1{r(A)p.r(G)p.r(C)p.r(G)p.r(A)p.r(U)p.r(C)p.r(C)p.r(C)p.m(G)p.r(A)p.r(A)p.m(C)p.r(A)p.r(A)p.r(G)p.m(U)p.r(A)p.r(U)p.r(T)p.r(T)}|RNA2{r(A)p.m(U)p.r(A)p.r(C)p.r(U)p.m(U)p.r(G)p.r(U)p.r(U)p.r(C)p.r(G)p.r(G)p.r(G)p.r(A)p.r(U)p.r(C)p.r(G)p.r(C)p.r(U)p.r(T)p.r(T)}$$$RNA1{StrandType:ss}|RNA2{StrandType:as}$	84%
RNA1{r(A)p.r(G)p.r(C)p.r(G)p.r(A)p.r(U)p.r(C)p.r(C)p.r(C)p.r(G)p.r(A)p.r(A)p.r(C)p.r(A)p.r(A)p.r(G)p.r(U)p.r(A)p.r(U)p.r(T)p.r(T)}|RNA2{r(A)p.m(U)p.r(A)p.r(C)p.r(U)p.r(U)p.r(G)p.r(U)p.r(U)p.r(C)p.r(G)p.r(G)p.r(G)p.r(A)p.r(U)p.r(C)p.r(G)p.r(C)p.r(U)p.r(T)p.r(T)}$$$RNA1{StrandType:ss}|RNA2{StrandType:as}$	85%
RNA1{r(A)p.r(G)p.r(C)p.r(G)p.r(G)p.r(G)p.r(G)p.m(U)p.r(A)p.m(U)p.r(G)p.r(A)p.r(A)p.r(G)p.m(A)p.r(G)p.r(C)p.r(U)p.r(U)p.r(T)p.r(T)}|RNA2{r(A)p.r(A)p.r(G)p.r(C)p.r(U)p.r(C)p.r(U)p.r(U)p.m(C)p.r(A)p.m(U)p.r(A)p.r(C)p.r(C)p.r(C)p.r(C)p.r(G)p.r(C)p.r(U)p.r(T)p.r(T)}$$$RNA1{StrandType:ss}|RNA2{StrandType:as}$	85%
RNA1{r(A)p.r(G)p.r(C)p.r(G)p.r(G)p.r(G)p.r(G)p.m(U)p.r(A)p.r(U)p.r(G)p.r(A)p.r(A)p.r(G)p.r(A)p.r(G)p.r(C)p.r(U)p.r(U)p.r(T)p.r(T)}|RNA2{r(A)p.r(A)p.r(G)p.r(C)p.r(U)p.r(C)p.r(U)p.r(U)p.r(C)p.r(A)p.m(U)p.r(A)p.r(C)p.r(C)p.r(C)p.r(C)p.r(G)p.r(C)p.r(U)p.r(T)p.r(T)}$$$RNA1{StrandType:ss}|RNA2{StrandType:as}$	82%
RNA1{r(A)p.r(G)p.r(C)p.r(U)p.r(C)p.r(U)p.r(U)p.m(U)p.r(G)p.r(U)p.m(C)p.r(A)p.r(C)p.m(C)p.r(U)p.m(C)p.r(U)p.r(C)p.r(U)p.r(T)p.r(T)}|RNA2{r(A)p.r(G)p.r(A)p.r(G)p.r(A)p.r(G)p.r(G)p.m(U)p.r(G)p.r(A)p.m(C)p.r(A)p.r(A)p.r(A)p.r(G)p.r(A)p.r(G)p.r(C)p.r(U)p.r(T)p.r(T)}$$$RNA1{StrandType:ss}|RNA2{StrandType:as}$	34%
RNA1{r(A)p.r(G)p.r(C)p.r(U)p.r(C)p.r(U)p.r(U)p.r(U)p.r(G)p.r(U)p.r(C)p.m(A)p.r(C)p.r(C)p.r(U)p.r(C)p.r(U)p.r(C)p.r(U)p.r(T)p.r(T)}|RNA2{r(A)p.r(G)p.r(A)p.r(G)p.r(A)p.r(G)p.r(G)p.r(U)p.r(G)p.r(A)p.m(C)p.m(A)p.r(A)p.r(A)p.r(G)p.r(A)p.r(G)p.r(C)p.r(U)p.r(T)p.r(T)}$$$RNA1{StrandType:ss}|RNA2{StrandType:as}$	37%
RNA1{r(A)p.r(G)p.r(G)p.r(A)p.r(C)p.r(G)p.r(G)p.m(U)p.r(A)p.r(C)p.r(U)p.r(U)p.m(U)p.r(C)p.r(G)p.m(A)p.r(A)p.r(A)p.r(G)p.r(T)p.r(T)}|RNA2{r(C)p.r(U)p.r(U)p.r(U)p.r(C)p.r(G)p.r(A)p.r(A)p.r(A)p.r(G)p.m(U)p.r(A)p.r(C)p.r(C)p.r(G)p.r(U)p.r(C)p.r(C)p.r(U)p.r(T)p.r(T)}$$$RNA1{StrandType:ss}|RNA2{StrandType:as}$	44%
RNA1{r(A)p.r(G)p.r(G)p.r(A)p.r(C)p.r(G)p.r(G)p.r(U)p.r(A)p.r(C)p.r(U)p.r(U)p.r(U)p.r(C)p.r(G)p.r(A)p.r(A)p.r(A)p.r(G)p.r(T)p.r(T)}|RNA2{r(C)p.r(U)p.r(U)p.r(U)p.r(C)p.r(G)p.r(A)p.r(A)p.r(A)p.r(G)p.r(U)p.m(A)p.r(C)p.r(C)p.r(G)p.r(U)p.r(C)p.r(C)p.r(U)p.r(T)p.r(T)}$$$RNA1{StrandType:ss}|RNA2{StrandType:as}$	46%
RNA1{r(A)p.r(G)p.r(G)p.r(A)p.r(G)p.r(A)p.r(C)p.r(C)p.r(G)p.[fl2r](U)p.r(G)p.r(A)p.[fl2r](C)p.r(A)p.r(U)p.r(U)p.r(U)p.r(C)p.r(G)p.r(T)p.r(T)}|RNA2{r(C)p.r(G)p.r(A)p.r(A)p.r(A)p.[fl2r](U)p.r(G)p.r(U)p.r(C)p.[fl2r](A)p.r(C)p.r(G)p.r(G)p.r(U)p.r(C)p.r(U)p.r(C)p.r(C)p.r(U)p.r(T)p.r(T)}$$$RNA1{StrandType:ss}|RNA2{StrandType:as}$	69%
RNA1{r(A)p.r(G)p.r(G)p.r(A)p.r(G)p.r(A)p.r(C)p.r(C)p.r(G)p.[fl2r](U)p.r(G)p.r(A)p.[fl2r](C)p.r(A)p.r(U)p.r(U)p.r(U)p.r(C)p.r(G)p.r(T)p.r(T)}|RNA2{r(C)p.r(G)p.r(A)p.r(A)p.r(A)p.[fl2r](U)p.r(G)p.r(U)p.r(C)p.r(A)p.r(C)p.r(G)p.r(G)p.r(U)p.r(C)p.r(U)p.r(C)p.r(C)p.r(U)p.r(T)p.r(T)}$$$RNA1{StrandType:ss}|RNA2{StrandType:as}$	72%
RNA1{r(A)p.r(G)p.r(U)p.[fl2r](U)p.r(A)p.r(A)p.r(C)p.r(C)p.r(C)p.r(G)p.r(G)p.r(G)p.r(A)p.r(C)p.r(U)p.[fl2r](U)p.r(G)p.r(G)p.r(A)p.r(T)p.r(T)}|RNA2{r(U)p.r(C)p.[fl2r](C)p.r(A)p.r(A)p.r(G)p.r(U)p.r(C)p.r(C)p.r(C)p.r(G)p.r(G)p.r(G)p.r(U)p.[fl2r](U)p.r(A)p.r(A)p.r(C)p.r(U)p.r(T)p.r(T)}$$$RNA1{StrandType:ss}|RNA2{StrandType:as}$	85% and 86%
RNA1{r(A)p.r(G)p.r(U)p.m(U)p.r(A)p.r(A)p.r(C)p.r(C)p.r(C)p.r(G)p.r(G)p.r(G)p.r(A)p.r(C)p.r(U)p.m(U)p.r(G)p.r(G)p.r(A)p.r(T)p.r(T)}|RNA2{r(U)p.r(C)p.m(C)p.r(A)p.r(A)p.r(G)p.r(U)p.r(C)p.r(C)p.r(C)p.r(G)p.r(G)p.r(G)p.r(U)p.m(U)p.r(A)p.r(A)p.r(C)p.r(U)p.r(T)p.r(T)}$$$RNA1{StrandType:ss}|RNA2{StrandType:as}$	90%
RNA1{r(A)p.r(G)p.r(U)p.m(U)p.r(A)p.r(A)p.r(C)p.r(C)p.r(C)p.r(G)p.r(G)p.r(G)p.r(A)p.r(C)p.r(U)p.r(U)p.r(G)p.r(G)p.r(A)p.r(T)p.r(T)}|RNA2{r(U)p.r(C)p.m(C)p.r(A)p.r(A)p.r(G)p.r(U)p.r(C)p.r(C)p.r(C)p.r(G)p.r(G)p.r(G)p.r(U)p.r(U)p.r(A)p.r(A)p.r(C)p.r(U)p.r(T)p.r(T)}$$$RNA1{StrandType:ss}|RNA2{StrandType:as}$	91%
RNA1{r(A)p.r(G)p.r(U)p.r(C)p.r(C)p.r(C)p.m(U)p.r(G)p.r(G)p.r(A)p.r(G)p.r(C)p.r(C)p.r(U)p.m(U)p.r(A)p.r(A)p.r(A)p.r(C)p.r(T)p.r(T)}|RNA2{r(G)p.r(U)p.r(U)p.m(U)p.r(A)p.r(A)p.r(G)p.r(G)p.r(C)p.r(U)p.r(C)p.m(C)p.r(A)p.r(G)p.r(G)p.r(G)p.r(A)p.r(C)p.r(U)p.r(T)p.r(T)}$$$RNA1{StrandType:ss}|RNA2{StrandType:as}$	65%
RNA1{r(A)p.r(G)p.r(U)p.r(C)p.r(C)p.r(C)p.r(U)p.r(G)p.r(G)p.r(A)p.r(G)p.r(C)p.r(C)p.r(U)p.m(U)p.m(A)p.r(A)p.r(A)p.r(C)p.r(T)p.r(T)}|RNA2{r(G)p.r(U)p.r(U)p.r(U)p.m(A)p.r(A)p.r(G)p.r(G)p.r(C)p.r(U)p.r(C)p.r(C)p.r(A)p.r(G)p.r(G)p.r(G)p.r(A)p.r(C)p.r(U)p.r(T)p.r(T)}$$$RNA1{StrandType:ss}|RNA2{StrandType:as}$	62%
